Results from patent publication US4055640A, “Compositions and methods for controlling the growth of bacteria, fungi and algae using certain derivatives of N-(2,2-dichlorovinyl)salicylamides” (Nippon Kayaku Co., Ltd., priority 1975, dated 1977).
Values after ≈ are worked out from the molar mass of the structure shown. Values joined by “and” are separate entries in the source; they are usually repeats but may differ in a detail not shown here. Identical values can stand only once. Counter-ions that a name gives are not always drawn.

Columns and labels:
[1] = tested on: seedlings of kidney beans (variety: Orient); assay: Phytotoxicity on kidney beans (Experimental Example 5); type: in vivo; settings: 1,000 ppm
[2] = tested on: Cucumber seeds (variety: Oyashima); assay: Phytotoxicity on cucumber seeds (Experimental Example 7); type: in vivo
[3] = tested on: botrytis cinerea (gray mold); assay: Exterminating test on gray mold of tomato (Experimental Example 5); type: in vivo; design: scale not given here; settings: 1,000 ppm, 48 hours after inoculation, kidney bean leaves
Summary of the method: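 Kidney bean seedlings (5-6 leaf stage) sprayed with water-diluted 80% wettable powder; leaves detached 24 h later and inoculated with B. cinerea agar disks under moist conditions. Lesion diameters measured 48 h post-inoculation to calculate an Effect Index.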

Cladosporium cucumerinum = assay: Exterminating test for seed treatment (Experimental Example 7); type: in vivo
From the text: Exterminating test for seed treatment. Cucumber seeds (variety: Oyashima) were dipped in the spores suspension of Cladosporium cucumerinum and dried. After 1 day, the seeds were dressed with 80% wettable powder of the present invention. On the other hand, other seeds were dipped in the solution of 80% wettable powder of the present invention. Five (5) seeds treated by either dressing or dipping were placed on each potato dextrose agar plate. After 10 days after the treatment, degrees attacked by the pathogen were observed and the results were shown with an "Effective Index". An "Effective Index" was calculated as follows: [formula]

[4] = tested on: cucumber seedlings (variety: Sagamihanjiro); assay: Phytotoxicity on cucumber seedlings (Experimental Example 2); type: in vivo; settings: 500 ppm
Summary of the method: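 Cucumber seedlings at the 3–4 leaf stage sprayed with water-diluted 80% wettable powder, then spray-inoculated with Cladosporium cucumerinum spores 24 h later. Plants held 24 h in a moist chamber at 20° C, then kept in a greenhouse at 20° C.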

[5] = tested on: Cladosporium cucumerinum (cucumber scab); assay: Exterminating test on cucumber scab (Experimental Example 2); type: in vivo; design: scale not given here; settings: 500 ppm, 5 days after inoculation
Summary of the method: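 Potted cucumber seedlings (cv. Sagamihanjiro, 3–4 leaf stage) were sprayed with an aqueous suspension of 80% wettable powder, then spray-inoculated with Cladosporium cucumerinum spores 24 h later. Plants were held 24 h in a moist chamber at 20° C, then in a greenhouse at 20° C. Infected Index was scored 5 days after inoculation from leaf counts by attack severity.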

Aspergillus niger = assay: Minimum inhibitory concentration, dilution methods (Example 14); type: cell-based
From the text: (§1) Bacteriocidal activity and fungicidal activity of the active compounds of the present invention were examined by potato-dextrose agar dilution method, [2] waxman's liquid medium dilution method or [3] glucose bouillon medium dilution method. The results are shown in Table 4 below as the minimum inhibitory concentration (the minimum concentration of active compound found to produce 100% control of the test bacteria and fungi).

Cladosporium harbarum = assay: as above; type: cell-based; settings: for minimum inhibitory concentration: (1) potato-dextrose agar dilution method
From the text: as §1

Penicillium Citrinum = assay: as above; type: cell-based; settings: for MIC: Penicillium citrinum
From the text: as §1

Escherichia coli = assay: as above; type: cell-based; settings: Escherichia coli
From the text: as §1

Staphylococcus aureus = assay: as above; type: cell-based; settings: for minimum inhibitory concentration: (1) potato-dextrose agar dilution method; for MIC: Staphylococcus aureus
From the text: as §1

Bacillus subtilis = assay: as above; type: cell-based; settings: Bacillus subtilis
From the text: as §1

summer orange seedlings = assay: Phytotoxicity on summer orange seedlings (Experimental Example 6); type: in vivo; settings: 1,000 ppm
[6] = tested on: Rhizoctonia solani (damping-off of cucumber); assay: Exterminating test on damping-off of cucumber (Experimental Example 3); type: in vivo; settings: Rhizoctonia solani, soil, 240 h, 1,000 ppm, soil drench 50 ml per pot, 10 days; read-out: Percentage of healthy seedlings
Summary of the method: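 Pots of field soil infested with Rhizoctonia solani (5 g/pot), sown with 10 Azumamidori cucumber seeds, then drenched with 50 ml aqueous suspension of 80% wettable powder and kept in greenhouse. PCNB 50% wettable powder as control. Percentage of healthy seedlings scored 10 days after inoculation.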

[7] = (2) waxman's liquid medium dilution method
[8] = (1) potato-dextrose agar dilution method
[9] = (3) glucose bouillon medium dilution method

Row | SMILES | Phytotoxicity [1] | Phytotoxicity ([2]; dipped, 5,000 ppm (30 min.)) | Phytotoxicity ([2]; dressed, 1 %) | Effect Index [3] | Effective Index (Cladosporium cucumerinum; dipped, 5,000 ppm (30 min.)) | Effective Index (Cladosporium cucumerinum; dressed, 1 %) | Phytotoxicity [4] | Infected Index [5] | minimum inhibitory concentration (Cladosporium harbarum) [mc g/ml] | minimum inhibitory concentration (Staphylococcus aureus) [mc g/ml] | Phytotoxicity (summer orange seedlings) | pest or weed control at 1000 ppm [6] [%] | further results
1 | O=C(NC=C(Cl)Cl)c1ccccc1O [Compound No. 1, N-(β,β-dichlorovinyl) salicylamide] | Nil | Nil | Nil | 84 | 69 | 87 | Nil | 9.4 | 10 | 2.5 | Nil | 100 | minimum inhibitory concentration (Aspergillus niger; [7]): 10 mc g/ml; MIC (Aspergillus niger; Aspergillus niger, (1) potato-dextrose agar dilution method): 10 µg/mL (≈ 43.1 µM); MIC (Cladosporium harbarum; Cladosporium, (2) waxman's liquid medium dilution method): 5 µg/mL (≈ 21.5 µM); MIC (Penicillium Citrinum; [8]): 10 µg/mL (≈ 43.1 µM); MIC (Penicillium Citrinum; [7]): 20 µg/mL (≈ 86.2 µM); MIC (Escherichia coli; [8]): 80 µg/mL (≈ 345 µM); MIC (Escherichia coli; [7]): 80 µg/mL (≈ 345 µM); MIC (Staphylococcus aureus; [7]): 2.5 µg/mL (≈ 10.8 µM); MIC (Bacillus subtilis; [8]): 2.5 µg/mL (≈ 10.8 µM); MIC (Bacillus subtilis; [7]): 5 µg/mL (≈ 21.5 µM)
2 | CC(=O)Oc1ccccc1C(=O)NC=C(Cl)Cl [Compound No. 6, O-acetyl-N-(2,2-dichlorovinyl) salicylamide] | Nil | Nil | Nil | 75 | 88 and 81 | 95 | Nil | 8.2 |  |  | Nil | 100 | 
3 | O=C(NC=C(Cl)Cl)c1ccccc1O [Compound No. 20, sodium salt of N-(β,β-dichlorovinyl) salicylamide] | Nil |  | Nil | 85 |  | 90 | Nil | 13.7 | 2.5 | 6 |  |  | minimum inhibitory concentration (Aspergillus niger; [8]): 10 mc g/ml; minimum inhibitory concentration (Penicillium Citrinum; [8]): 10 mc g/ml; MIC (Escherichia coli; [9]): 60 µg/mL; MIC (Staphylococcus aureus; [9]): 5 µg/mL; MIC (Bacillus subtilis; [9]): 5 µg/mL
